Results reported in article PMC8160210, “Single tryptophan Y160W mutant of homooligomeric E. coli purine nucleoside phosphorylase implies that dimers forming the hexamer are functionally not equivalent” (Scientific Reports, 2021).
Where two headings read alike, the source gives them in different places.

Tests used:
WT E. coli PNP [1] = biological target: T1, WT E. coli PNP (Escherichia coli, UniProt P0ABP8); assay: Inhibition of m^7Guo phosphorolysis; type: biochemical; details: competitive inhibition Eq. (3), m^7Guo as variable substrate, 50 mM phosphate, pH 7.0, 25 °C
T1 construct: made in house
T1 sequence (P0ABP8 2-239 limits assumed): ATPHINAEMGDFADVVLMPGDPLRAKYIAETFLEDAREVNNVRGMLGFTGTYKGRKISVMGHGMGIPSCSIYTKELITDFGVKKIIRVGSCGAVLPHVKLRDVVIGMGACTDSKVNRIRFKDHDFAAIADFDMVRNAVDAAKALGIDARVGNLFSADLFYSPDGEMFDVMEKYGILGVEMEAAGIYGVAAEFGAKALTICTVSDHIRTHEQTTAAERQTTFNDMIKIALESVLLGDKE
Method: All activity measurements and kinetic studies were done in 50 mM Hepes/HCl buffer pH 7.0 at 25 °C as previously described for the WT E. coli PNP and its active-site mutants, using direct spectrophotometric assay for adenosine, guanosine and 7-methylguanosine as substrates, and a coupled assay with xanthine oxidase in the case of inosine[13],[28],[29]. Activity measurements were performed for each protein sample, before and after each experiment as a control of the state of the protein.
To determine inhibition model and inhibition constant for formycin A, rate of phosphorolysis with m^7Guo as a variable substrate, at constant, 50 mM, phosphate concentration, was registered in the absence of the inhibitor and in the presence of two different concentrations of formycin. A global fitting to the whole data set was performed, using various models (competitive, uncompetitive, noncompetitive, mixed). As expected for the substrate analogue, competitive model described the data sufficiently well:3 v0c0=Vmax1c0/c0+KM1+ci/Ki where ci is inhibitor concentration. Kinetic data were analysed using the GraphPad Prism program (Intuitive Software for Science, San Diego, CA, USA).

WT E. coli PNP [2] = biological target: T1, WT E. coli PNP; parameters: method as in PMID 30337572; details: phosphate as variable substrate, 250 μM m^7Guo, allostery Eq. (2), cited from earlier work
Y160W PNP mutant = Y160W PNP mutant (Escherichia coli, UniProt P0ABP8, Y161W); details: phosphate as variable substrate, 0.4 mM m^7Guo, allostery Eq. (2)
Method: Activity measurements were performed for each protein sample, before and after each experiment as a control of the state of the protein.
The classical Michaelis–Menten equation was fitted to the kinetic curves (i.e. initial rate of the reaction, v0, vs. initial substrate concentration, c0):1 v0c0=Vmax1c0/c0+KM1
Coefficients a and b express the degree of cooperation between the subunits in a dimer, while constants KM1 and Vmax1 characterize the active sites of the enzyme when the neighbouring site is free.
A more complex model was used if there was a statistically significant decrease in the residual sum of squares as judged by the F test at 95% confidence level.

WT E. coli PNP [3] = biological target: T1, WT E. coli PNP; assay: Thermophoretic (MST) titrations with phosphate; details: two-binding-site model, 25 °C
Method: Measurements were performed with Monolith NT115 (NanoTemper). Enzyme was labelled with NT647 fluorescent dye (NanoTemper) according to the protocol provided by the manufacturer. Labelled proteins show fluorescence excitation and emission maxima of approximately 650 and 670 nm, respectively. The series of titrations were performed at a constant protein concentration. Both proteins (WT and mutant), and ligands were dissolved in 50 mM Tris/HCl pH 7.6 buffer, measurements were performed at 25 °C. […] In the pre-experiments, it was carefully checked for both proteins, WT and Y160W mutant whether any sign of aggregation or inactivation occurs, and if mutant behaviour is similar to that of the WT enzyme. […]
For experiments of the binary complex formation with phosphate, curves were measured at four different powers of the heating laser. Two to five titrations at each heating power were measured, and curves were averaged for a particular heating power. […] This is an area inaccessible in fluorescence titration due to the quenching of the protein fluorescence at such a high ionic strength of the solution. […]
Titration series were analysed globally, always starting from the simplest, one-binding-site model. […] For all tested models the Akaike information criterion[23] was also calculated. […]

Sequence of Y160W PNP mutant (P0ABP8 2-239 Y161W): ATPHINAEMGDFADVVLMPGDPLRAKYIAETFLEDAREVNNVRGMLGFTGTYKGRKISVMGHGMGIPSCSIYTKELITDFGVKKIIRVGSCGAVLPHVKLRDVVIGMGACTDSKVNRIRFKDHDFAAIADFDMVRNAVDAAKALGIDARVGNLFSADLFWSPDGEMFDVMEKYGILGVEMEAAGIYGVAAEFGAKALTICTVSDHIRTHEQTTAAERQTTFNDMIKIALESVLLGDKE

SMILES	Ki (WT E. coli PNP [1])	Km (WT E. coli PNP [2]; pH 7.0, 25 °C)	Vmax (WT E. coli PNP [2]; pH 7.0, 25 °C)	a (cooperativity coefficient, KM2 = aKM1) (WT E. coli PNP [2])	b (cooperativity coefficient, Vmax2 = bVmax1) (WT E. coli PNP [2])	a (cooperativity coefficient, KM2 = aKM1) (Y160W PNP mutant)	b (cooperativity coefficient, Vmax2 = bVmax1) (Y160W PNP mutant)	Km (Y160W PNP mutant; pH 7.0, 25 °C)	Vmax (Y160W PNP mutant; pH 7.0, 25 °C)	Kd (WT E. coli PNP [3]; 50 mM Tris/HCl pH 7.6, read-out: Kd1 ± SD)	Kd (WT E. coli PNP [3]; 50 mM Tris/HCl pH 7.6, read-out: Kd3 ± SD)
Nc1ncnc2c([C@@H]3O[C@H](CO)[C@@H](O)[C@H]3O)[nH]nc12 [FA, Formycin A]	5.3 ± 0.4 µM										
O=P(O)(O)O [Pi, Orthophosphate]		15 ± 4 µM	10.8 ± 0.7 U/mg	267 ± 232	0.76 ± 0.06	390 ± 122	0.94 ± 0.05	18.7 ± 2.7 µM	11.7 ± 0.4 U/mg	7 µM	1640 µM
